From ChEMBL document CHEMBL4619760, “Anti-inflammatory Efficacy of Combined Natural Alkaloid Berberine and S1PR Modulator Fingolimod at Low Doses in Ulcerative Colitis Preclinical Models” (J Nat Prod, 2020) come the findings set out here.

Calls of active or inactive are those of the source. The calls are words filed in the database; no cut-off is given here.

Series [1] deals with Mus musculus. The series is described as follows: Anti-colitis activity against DSS-induced C57BL/6 mouse model of subchronic relapsing colitis assessed as reduction in phosphorylated STAT3 level at 0.3 mg/kg, po administered once daily for 14 days starting from day 5 post DSS-challenge cotreated with 20 mg/kg berberine by Western blot analysis. It counts as functional, organism-based.

Series [2] has as its system Mus musculus. The series is described as follows: Anti-colitis activity against DSS-induced C57BL/6 mouse model of chronic relapsing colitis assessed as reduction in DSS-induced multiple erosive lesions in colon at 0.3 mg/kg, po administered once daily for 30 days starting from day 13 post DSS-challenge. The class given is functional, organism-based.
The nature of series [3]: Toxicity in DSS-induced C57BL/6 mouse model of chronic relapsing colitis assessed as induction of abnormalities in lung at 0.15 mg/kg, po administered once daily for 30 days starting from day 13 post DSS-challenge cotreated with 20 mg/kg berberine by hematoxylin and eosin staining based light microscopic analysis. It counts as organism-based. To be noted: in vivo, 720 h.

The nature of series [4]: Toxicity in DSS-induced C57BL/6 mouse model of chronic relapsing colitis assessed as induction of abnormalities in kidney at 0.15 mg/kg, po administered once daily for 30 days starting from day 13 post DSS-challenge cotreated with 20 mg/kg berberine by hematoxylin and eosin staining based light microscopic analysis. It counts as organism-based. The conditions noted are these: in vivo, 720 h.

Series [5] relates to Mus musculus. The series is described as follows: Antiinflammatory activity against DSS-induced C57BL/6 mouse model of subchronic relapsing colitis assessed as reduction in TNFalpha mRNA level at 0.3 mg/kg, po administered once daily for 14 days starting from day 5 post DSS-challenge by RT-qPCR analysis. It counts as functional, organism-based.
For series [6], the system named is Mus musculus. Put plainly: Anti-colitis activity against DSS-induced C57BL/6 mouse model of chronic relapsing colitis assessed as reduction in disease activity index at 0.15 mg/kg, po administered once daily for 30 days starting from day 13 post DSS-challenge cotreated with 20 mg/kg berberine and measured on day 43. The class given is functional, organism-based.

Series [7] relates to THP-1. Put plainly: Antiinflammatory activity in human THP1 cells assessed as reduction in LPS-induced TNFalpha mRNA level at 1 uM incubated for 1 hr followed by LPS challenge and measured after 4 to 6 hrs by q-PCR method. The class given is functional, cell-based.
Series [8] has as its system Mus musculus. Put plainly: Effect on total S1PR1 expression in DSS-induced C57BL/6 mouse model of subchronic relapsing colitis at 0.3 mg/kg, po administered once daily for 14 days starting from day 5 post DSS-challenge by Western blot analysis. The class given is ADME, organism-based. To be noted: in vivo, 336 h.
The subject of series [9] is Mus musculus. The series is described as follows: Antiinflammatory activity against DSS-induced C57BL/6 mouse model of subchronic relapsing colitis assessed as reduction in IL17 mRNA level at 0.15 mg/kg, po administered once daily for 14 days starting from day 5 post DSS-challenge cotreated with 20 mg/kg berberine by RT-qPCR analysis. The class given is functional, organism-based.

Series [10] in a line: Toxicity in DSS-induced C57BL/6 mouse model of chronic relapsing colitis assessed as induction of abnormalities in lung at 0.3 mg/kg, po administered once daily for 30 days starting from day 13 post DSS-challenge by hematoxylin and eosin staining based light microscopic analysis. The class given is organism-based. The conditions noted are these: in vivo, 720 h.
For series [11], the system named is THP-1. The series is described as follows: Antiinflammatory activity in human THP1 cells assessed as reduction in LPS-induced IL6 mRNA level at 1 uM incubated for 1 hr followed by LPS challenge and measured after 4 to 6 hrs by q-PCR method. The class given is functional, cell-based.
In series [12] the test system is Mus musculus. Put plainly: Anti-colitis activity against DSS-induced C57BL/6 mouse model of chronic relapsing colitis assessed as reduction in DSS-induced spleen swelling at 0.15 mg/kg, po administered once daily for 30 days starting from day 13 post DSS-challenge cotreated with 20 mg/kg berberine. It counts as functional, organism-based.
Series [13] deals with Mus musculus. Put plainly: Anti-colitis activity against DSS-induced C57BL/6 mouse model of chronic relapsing colitis assessed as reversal of DSS-induced colon shortening at 0.3 mg/kg, po administered once daily for 30 days starting from day 13 post DSS-challenge. It counts as functional, organism-based.
Series [14] can be described thus: Toxicity in DSS-induced C57BL/6 mouse model of chronic relapsing colitis assessed as induction of abnormalities in brain at 0.15 mg/kg, po administered once daily for 30 days starting from day 13 post DSS-challenge cotreated with 20 mg/kg berberine by hematoxylin and eosin staining based light microscopic analysis. It counts as organism-based. The conditions noted are these: in vivo, 720 h.

Series [15] deals with THP-1. The series is described as follows: Antiinflammatory activity in human THP1 cells assessed as reduction in LPS-induced IL6 mRNA level at 0.5 uM cotreated with 0.5 uM berberine incubated for 1 hr followed by LPS challenge and measured after 4 to 6 hrs by q-PCR method. The class given is functional, cell-based.
Series [16] deals with Mus musculus. Put plainly: Anti-colitis activity against DSS-induced C57BL/6 mouse model of subchronic relapsing colitis assessed as reduction in stool consistency score at 0.15 mg/kg, po administered once daily for 14 days starting from day 5 post DSS-challenge cotreated with 20 mg/kg berberine and measured after day 12 to day 18. The class given is functional, organism-based.

Series [17] in a line: Toxicity in DSS-induced C57BL/6 mouse model of chronic relapsing colitis assessed as induction of abnormalities in brain at 0.3 mg/kg, po administered once daily for 30 days starting from day 13 post DSS-challenge by hematoxylin and eosin staining based light microscopic analysis. It counts as organism-based. To be noted: in vivo, 720 h.
For series [18], the system named is Mus musculus. Put plainly: Effect on total STAT3 expression in DSS-induced C57BL/6 mouse model of subchronic relapsing colitis at 0.15 mg/kg, po administered once daily for 14 days starting from day 5 post DSS-challenge cotreated with 20 mg/kg berberine by Western blot analysis. It counts as ADME, organism-based. To be noted: in vivo, 336 h.
Series [19] concerns Mus musculus. Put plainly: Anti-colitis activity against DSS-induced C57BL/6 mouse model of chronic relapsing colitis assessed as reduction in disease activity index at 0.3 mg/kg, po administered once daily for 30 days starting from day 13 post DSS-challenge and measured on day 43. It counts as functional, organism-based.
Series [20] deals with Mus musculus. The series is described as follows: Anti-colitis activity against DSS-induced C57BL/6 mouse model of subchronic relapsing colitis assessed as reduction in DSS-induced colon swelling at 0.15 mg/kg, po administered once daily for 30 days starting from day 13 post DSS-challenge cotreated with 20 mg/kg berberine. It counts as functional, organism-based.

As for `CCCCCCCCc1ccc(CCC(N)(CO)CO)cc1.Cl` [FINGOLIMOD HYDROCHLORIDE], the result in [1], in series [2], in series [5], in series [6], in series [7] and in series [9] was Active. The outcome in series [11], in series [12], in [13], in series [15], in [16] and in series [19] was Active. For the same molecule, the Activity entry in series [3], in series [4], in series [8], in series [10], in series [14] and in series [17] was “Non-Toxic” each time. Moreover, the Activity entry in [18] is on record as “Non-Toxic”. Also, in series [20], the result was inactive.
